Measurements reported in paper PMC5811606, “Characterization of ^111In-labeled Glucose-Dependent Insulinotropic Polypeptide as a Radiotracer for Neuroendocrine Tumors” (Scientific Reports, 2018).
Like-named read-outs stand apart in the source and are kept apart here.

Experiment: Peptide dose escalation study, BHK-GIPR tumor mice
Format: in vivo, BALB/c nude mice
Conditions: female, iv, total radioactivity; for tissue to tissue ratio at 4 h: BHK-GIPR tumor / blood, read-out: Tumor/Blood
Description: All animal experiments were approved by the Animal Welfare Body of the Radboud University, Nijmegen, The Netherlands and carried out in accordance with their guidelines. Six to eight weeks old, female BALB/c nude mice and C3H mice were purchased from Janvier labs (Le Genest Saint Isle, France). For all in vivo experiments, 6-8 weeks old female BALB/c nude mice were injected subcutaneously in the right shoulder with 0.2 ml of a 2.5 × 10^7 cells/ml suspension of BHK-GIPR transfected cells or with 0.2 ml of a 2.5 × 10^7 cells/ml suspension of NES2Y cells mixed with matrigel (2:1) in the right shoulder. When the tumor reached a diameter of 2-5 mm, mice were randomly divided in groups.
To determine the optimal peptide dose of [Lys^37(DTPA)]N-acetyl-GIP1-42, BHK-GIPR transfected tumor bearing BALB/c nude mice (n = 5/group) were injected intravenously with approximately 3 MBq [Lys^37(^111In-DTPA)]N-acetyl-GIP1-42 (0.05 µg) in the tail vein and were co-injected with escalating amounts of unlabeled [Lys^37(DTPA)]N-acetyl-GIP1-42 (0.05 µg – 1.95 µg), resulting in final peptide doses ranging from 0.1 to 2 µg/mouse (0.02 – 0.4 nmol/mouse) (5 groups, n = 5/group). Four hours after injection, mice were euthanized by CO2/O2 suffocation and tumors and other relevant tissues (heart, muscle, lung, spleen, pancreas, kidney, liver, stomach and duodenum) were dissected, weighed and measured in a well type gamma counter. The percentage injected dose per gram of tissue (%ID/g) was determined for each tissue.

CC[C@H](C)[C@H](NC(=O)[C@H](CO)NC(=O)[C@H](Cc1ccc(O)cc1)NC(=O)[C@H](CC(=O)O)NC(=O)[C@H](CO)NC(=O)[C@@H](NC(=O)[C@H](Cc1ccccc1)NC(=O)[C@@H](NC(=O)CNC(=O)[C@H](CCC(=O)O)NC(=O)[C@H](C)NC(=O)[C@H](Cc1ccc(O)cc1)NC(C)=O)[C@@H](C)O)[C@@H](C)CC)C(=O)N[C@@H](C)C(=O)N[C@@H](CCSC)C(=O)N[C@@H](CC(=O)O)C(=O)N[C@@H](CCCCN)C(=O)N[C@H](C(=O)N[C@@H](Cc1c[nH]cn1)C(=O)N[C@@H](CCC(N)=O)C(=O)N[C@@H](CCC(N)=O)C(=O)N[C@@H](CC(=O)O)C(=O)N[C@@H](Cc1ccccc1)C(=O)N[C@H](C(=O)N[C@@H](CC(N)=O)C(=O)N[C@@H](Cc1c[nH]c2ccccc12)C(=O)N[C@@H](CC(C)C)C(=O)N[C@@H](CC(C)C)C(=O)N[C@@H](C)C(=O)N[C@@H](CCC(N)=O)C(=O)N[C@@H](CCCCN)C(=O)NCC(=O)N[C@@H](CCCCN)C(=O)N[C@@H](CCCCN)C(=O)N[C@@H](CC(N)=O)C(=O)N[C@@H](CC(=O)O)C(=O)N[C@@H](Cc1c[nH]c2ccccc12)C(=O)N[C@@H](CCCCNC(=O)CN(CCN(CCN(CC(=O)O)CC(=O)O)CC(=O)O)CC(=O)O)C(=O)N[C@@H](Cc1c[nH]cn1)C(=O)N[C@@H](CC(N)=O)C(=O)N[C@H](C(=O)N[C@H](C(=O)N[C@@H](CCC(N)=O)C(=O)O)[C@@H](C)O)[C@@H](C)CC)C(C)C)[C@@H](C)CC [[Lys^37(^111In-DTPA)]N-acetyl-GIP1-42, metal not drawn]
tissue uptake at 4 h (BALB/c nude, BHK-GIPR tumor, peptide doses ≤ 0.2 µg (0.04 nmol) per mouse, 4 hours post-injection, mean ± SD, n=5, read-out: tumor uptake): 5.2 ± 1.4 %ID/g
tissue uptake at 4 h (BALB/c nude, mouse, 0.5 ug/mouse, BHK-GIPR tumor, peptide dose 0.5 µg (0.1 nmol), 4 hours post-injection, mean ± SD, n=5, read-out: tumor uptake): 2.4 ± 0.7 %ID/g
tissue to tissue ratio at 4 h (mouse, 0.1 ug/mouse, BHK-GIPR tumor BALB/c nude mice, i.v., peptide dose 0.1 µg, 4 h p.i., mean n=5): 143
tissue to tissue ratio at 4 h (mouse, 0.2 ug/mouse, BHK-GIPR tumor BALB/c nude mice, i.v., peptide dose 0.2 µg, 4 h p.i., mean n=5): 110
tissue to tissue ratio at 4 h (mouse, 0.5 ug/mouse, BHK-GIPR tumor BALB/c nude mice, i.v., peptide dose 0.5 µg, 4 h p.i., mean n=5): 52.6
tissue to tissue ratio at 4 h (mouse, 1 ug/mouse, BHK-GIPR tumor BALB/c nude mice, i.v., peptide dose 1 µg, 4 h p.i., mean n=5): 50.3
tissue uptake at 4 h (mouse, blood, 0.1 ug/mouse, BHK-GIPR tumor BALB/c nude mice, i.v., peptide dose 0.1 µg, 4 h p.i., mean n=5, read-out: Blood uptake): 0.033 %ID/g
tissue uptake at 4 h (mouse, blood, 0.2 ug/mouse, BHK-GIPR tumor BALB/c nude mice, i.v., peptide dose 0.2 µg, 4 h p.i., mean n=5, read-out: Blood uptake): 0.047 %ID/g
tissue uptake at 4 h (mouse, blood, 0.5 ug/mouse, BHK-GIPR tumor BALB/c nude mice, i.v., peptide dose 0.5 µg, 4 h p.i., mean n=5, read-out: Blood uptake): 0.047 %ID/g
tissue uptake at 4 h (mouse, blood, 1 ug/mouse, BHK-GIPR tumor BALB/c nude mice, i.v., peptide dose 1 µg, 4 h p.i., mean n=5, read-out: Blood uptake): 0.059 %ID/g
tissue uptake at 4 h (mouse, blood, 2 ug/mouse, BHK-GIPR tumor BALB/c nude mice, i.v., peptide dose 2 µg, 4 h p.i., mean n=5, read-out: Blood uptake): 0.066 %ID/g
tissue uptake at 4 h (mouse, duodenum, 0.1 ug/mouse, BHK-GIPR tumor BALB/c nude mice, i.v., peptide dose 0.1 µg, 4 h p.i., mean n=5, read-out: Duodenum uptake): 0.486 %ID/g
tissue uptake at 4 h (mouse, duodenum, 0.2 ug/mouse, BHK-GIPR tumor BALB/c nude mice, i.v., peptide dose 0.2 µg, 4 h p.i., mean n=5, read-out: Duodenum uptake): 0.573 %ID/g
tissue uptake at 4 h (mouse, duodenum, 0.5 ug/mouse, BHK-GIPR tumor BALB/c nude mice, i.v., peptide dose 0.5 µg, 4 h p.i., mean n=5, read-out: Duodenum uptake): 0.529 %ID/g
tissue uptake at 4 h (mouse, duodenum, 1 ug/mouse, BHK-GIPR tumor BALB/c nude mice, i.v., peptide dose 1 µg, 4 h p.i., mean n=5, read-out: Duodenum uptake): 0.75 %ID/g
tissue uptake at 4 h (mouse, duodenum, 2 ug/mouse, BHK-GIPR tumor BALB/c nude mice, i.v., peptide dose 2 µg, 4 h p.i., mean n=5, read-out: Duodenum uptake): 0.929 %ID/g
tissue uptake at 4 h (mouse, heart, 0.1 ug/mouse, BHK-GIPR tumor BALB/c nude mice, i.v., peptide dose 0.1 µg, 4 h p.i., mean n=5, read-out: Heart uptake): 0.133 %ID/g
tissue uptake at 4 h (mouse, heart, 0.2 ug/mouse, BHK-GIPR tumor BALB/c nude mice, i.v., peptide dose 0.2 µg, 4 h p.i., mean n=5, read-out: Heart uptake): 0.156 %ID/g
tissue uptake at 4 h (mouse, heart, 0.5 ug/mouse, BHK-GIPR tumor BALB/c nude mice, i.v., peptide dose 0.5 µg, 4 h p.i., mean n=5, read-out: Heart uptake): 0.163 %ID/g
tissue uptake at 4 h (mouse, heart, 1 ug/mouse, BHK-GIPR tumor BALB/c nude mice, i.v., peptide dose 1 µg, 4 h p.i., mean n=5, read-out: Heart uptake): 0.178 %ID/g
tissue uptake at 4 h (mouse, heart, 2 ug, BHK-GIPR tumor BALB/c nude mice, i.v., peptide dose 2 µg, 4 h p.i., mean n=5, read-out: Heart uptake): 0.173 %ID/g
tissue uptake at 4 h (mouse, kidney, 0.1 ug/mouse, BHK-GIPR tumor BALB/c nude mice, i.v., peptide dose 0.1 µg, 4 h p.i., mean n=5, read-out: Kidney uptake): 237 %ID/g
tissue uptake at 4 h (mouse, kidney, 0.2 ug/mouse, BHK-GIPR tumor BALB/c nude mice, i.v., peptide dose 0.2 µg, 4 h p.i., mean n=5, read-out: Kidney uptake): 265 %ID/g
tissue uptake at 4 h (mouse, kidney, 0.5 ug/mouse, BHK-GIPR tumor BALB/c nude mice, i.v., peptide dose 0.5 µg, 4 h p.i., mean n=5, read-out: Kidney uptake): 214 %ID/g
tissue uptake at 4 h (mouse, kidney, 1 ug/mouse, BHK-GIPR tumor BALB/c nude mice, i.v., peptide dose 1 µg, 4 h p.i., mean n=5, read-out: Kidney uptake): 287 %ID/g
tissue uptake at 4 h (mouse, kidney, 2 ug/mouse, BHK-GIPR tumor BALB/c nude mice, i.v., peptide dose 2 µg, 4 h p.i., mean n=5, read-out: Kidney uptake): 257 %ID/g
tissue uptake at 4 h (mouse, liver, 0.1 ug/mouse, BHK-GIPR tumor BALB/c nude mice, i.v., peptide dose 0.1 µg, 4 h p.i., mean n=5, read-out: Liver uptake): 1.6 %ID/g
tissue uptake at 4 h (mouse, liver, 0.2 ug/mouse, BHK-GIPR tumor BALB/c nude mice, i.v., peptide dose 0.2 µg, 4 h p.i., mean n=5, read-out: Liver uptake): 1.53 %ID/g
tissue uptake at 4 h (mouse, liver, 0.5 ug/mouse, BHK-GIPR tumor BALB/c nude mice, i.v., peptide dose 0.5 µg, 4 h p.i., mean n=5, read-out: Liver uptake): 1.55 %ID/g
tissue uptake at 4 h (mouse, liver, 1 ug/mouse, BHK-GIPR tumor BALB/c nude mice, i.v., peptide dose 1 µg, 4 h p.i., mean n=5, read-out: Liver uptake): 1.74 %ID/g
tissue uptake at 4 h (mouse, liver, 2 ug/mouse, BHK-GIPR tumor BALB/c nude mice, i.v., peptide dose 2 µg, 4 h p.i., mean n=5, read-out: Liver uptake): 1.83 %ID/g
tissue uptake at 4 h (mouse, lung, 0.1 ug, BHK-GIPR tumor BALB/c nude mice, i.v., peptide dose 0.1 µg, 4 h p.i., mean n=5, read-out: Lung uptake): 0.364 %ID/g
tissue uptake at 4 h (mouse, lung, 0.2 ug, BHK-GIPR tumor BALB/c nude mice, i.v., peptide dose 0.2 µg, 4 h p.i., mean n=5, read-out: Lung uptake): 0.518 %ID/g
tissue uptake at 4 h (mouse, lung, 0.5 ug, BHK-GIPR tumor BALB/c nude mice, i.v., peptide dose 0.5 µg, 4 h p.i., mean n=5, read-out: Lung uptake): 0.577 %ID/g
tissue uptake at 4 h (mouse, lung, 1 ug, BHK-GIPR tumor BALB/c nude mice, i.v., peptide dose 1 µg, 4 h p.i., mean n=5, read-out: Lung uptake): 0.608 %ID/g
tissue uptake at 4 h (mouse, lung, 2 ug, BHK-GIPR tumor BALB/c nude mice, i.v., peptide dose 2 µg, 4 h p.i., mean n=5, read-out: Lung uptake): 0.56 %ID/g
